Assay results taken from publication PMC6199744, “Development of Chemical Proteomics for the Folateome and Analysis of the Kinetoplastid Folateome” (ACS Infectious Diseases, 2018).
“And” between values parts separate entries of the source, which are not always exact repeats. Equal values may be shown once. Read-outs that look alike come from different tables or passages of the source.

Test system: T. brucei lysate proteins
Assay type: binding, Trypanosoma brucei

CCCCCCOc1ccc(Cc2cnc(N)nc2N)cc1 [compound 1]
fold change - vehicle control: 0.84 and 0.54 and 0.72 and 0.9 and 0.79 | fold change - vehicle control (protein RHS6A (CZT00028360.1)): 0.94 | fold change - vehicle control (protein TB09.160.1250 HY[…], CONSERVED): 0.85 | fold change - vehicle control (protein TB09.160.3670 RIBOSOMAL PROTEIN S6, PUTATIVE): 0.92 | fold change - vehicle control (protein TB09.211.2630 60S RIBOSOMAL PROTEIN L23, PUTATIVE): 1 | fold change - vehicle control (protein TB09.211.4513 KIN[…] PROTEIN KMP-11): 0.73 | fold change - vehicle control (protein TB11.V4.0005 RIBONUCLEOSIDE-DIPHOSPHATE REDUCTASE SMALL CHAIN): 0.92 | fold change - vehicle control (protein TB11.01.0870 R[…] A, 51KDA SUBUNIT, PUTATIVE): 0.98 | fold change - vehicle control (protein TB11.01.2560 40S RIBOSOMAL PROTEIN SA, PUTATIVE): 1.02 | fold change - vehicle control (protein TB11.01.4880 HY[…], CONSERVED): 0.77 | fold change - vehicle control (protein TB11.01.7090 HY[…], CONSERVED): 0.93 | fold change - vehicle control (protein TB11.02.2510 GUANINE NUCLEOTIDE-BINDING BETA SUBUNIT-LIKE PROTEIN): 0.93 | fold change - vehicle control (protein TB11.02.4170 40S RIBOSOMAL PROTEIN S5, PUTATIVE): 1.3 | fold change - vehicle control (protein TB11.03.0250 C[…]): 1.42 | fold change - vehicle control (protein TB11.46.0009 HY[…], CONSERVED): 0.95 | fold change - vehicle control (protein TB427TMP.01.1475 40S RIBOSOMAL PROTEIN S27, PUTATIVE): 0.92 | fold change - vehicle control (protein TB427TMP.01.4280 HY[…], CONSERVED): 1.08 | fold change - vehicle control (protein TB427TMP.01.4650 HY[…], CONSERVED): 0.58 | fold change - vehicle control (protein TB427TMP.01.4810 HY[…], CONSERVED): 0.83 | fold change - vehicle control (protein TB427TMP.01.5680 HY[…], CONSERVED): 0.33 | fold change - vehicle control (protein TB427TMP.01.8390 HY[…], CONSERVED): 0.87 | fold change - vehicle control (protein TB427TMP.02.0230 HY[…], CONSERVED): 1.01 | fold change - vehicle control (protein TB427TMP.02.0460 NUCLEOPORIN): 0.92 | fold change - vehicle control (protein TB427TMP.02.1106 NUCLEOBASE/NUCLEOSIDE TRANSPORTER 8 1): 1.06 | fold change - vehicle control (protein TB427TMP.160.2050 ENDO-BETA-N-ACETYLGLUCOSAMINIDASE, PUTATIVE): 0.79 | fold change - vehicle control (protein TB427TMP.160.4310 GLUTAMATE DEHYDROGENASE): 1.16 | fold change - vehicle control (protein TB427TMP.160.4450 40S RIBOSOMAL PROTEIN S3, PUTATIVE): 1 | fold change - vehicle control (protein TB427TMP.160.4630 HY[…], CONSERVED): 0.8 | fold change - vehicle control (protein TB427TMP.160.5200 HY[…], CONSERVED): 0.67 | fold change - vehicle control (protein TB427TMP.160.5670 HY[…], CONSERVED): 0.21 | fold change - vehicle control (protein TB427TMP.211.0930 POLYADENYLATE-BINDING PROTEIN 1): 1.23 | fold change - vehicle control (protein TB427TMP.211.1750 MIT[…] PROTEIN, PUTATIVE): 0.86 | fold change - vehicle control (protein TB427TMP.211.3510 ATP-DEPENDENT DEAD/H RNA HELICASE, PUTATIVE): 0.97 | fold change - vehicle control (protein TB427TMP.211.4540 RNA-BINDING PROTEIN, PUTATIVE): 0.71 | fold change - vehicle control (protein TB427TMP.244.2840 HY[…], CONSERVED): 0.64 | fold change - vehicle control (protein TB427.01.1240 CYTIDINE TR[…], PUTATIVE): 0.67 | fold change - vehicle control (protein TB427.01.2570 COATOMER BETA SUBUNIT): 0.88 | fold change - vehicle control (protein TB427.01.3910 HY[…], CONSERVED): 0.83 | fold change - vehicle control (protein TB427.02.6240): 0.95 | fold change - vehicle control (protein TB427.04.3350 HY[…], CONSERVED): 1.02 | fold change - vehicle control (protein TB427.04.3890 ATP-DEPENDENT RNA HELICASE, PUTATIVE): 0.9 | fold change - vehicle control (protein TB427.04.4870 AMINO ACID TRANSPORTER, PUTATIVE): 0.86 | fold change - vehicle control (protein TB427.04.750 50S RIBOSOMAL PROTEIN L7AE, PUTATIVE): 0.67 | fold change - vehicle control (protein TB427.04.960 HY[…], CONSERVED): 0.68 | fold change - vehicle control (protein TB427.05.1780 HY[…], CONSERVED): 0.66 | fold change - vehicle control (protein TB427.05.3030 INTR[…] PROTEIN IFT122, PUTATIVE): 0.78 | fold change - vehicle control (protein TB427.05.4560 GUANINE DEAMINASE, PUTATIVE): 1.07 | fold change - vehicle control (protein TB427.06.2150 CELL DIVISION CYCLE PROTEIN 16, PUTATIVE): 0.92 | fold change - vehicle control (protein TB427.06.3110 PROTEIN KINASE, PUTATIVE (CRK11)): 1.03 | fold change - vehicle control (protein TB427.06.5110 DAMAGE-SPECIFIC DNA BINDING PROTEIN, PUTATIVE): 0.86 | fold change - vehicle control (protein TB427.07.2670 HY[…], CONSERVED): 0.89 | fold change - vehicle control (protein TB427.07.3040 HY[…], CONSERVED): 0.9 | fold change - vehicle control (protein TB427.07.3530 HY[…], CONSERVED): 0.96 | fold change - vehicle control (protein TB427.07.4970 GLUTAMINE SYNTHETASE, PUTATIVE): 0.89 | fold change - vehicle control (protein TB427.07.5560 GLUCOSAMINE-FRUCTOSE-6-PHOSPHATE AMINOTRANSFERASE, PUTATIVE): 0.77 | fold change - vehicle control (protein TB427.07.5890 HY[…], CONSERVED): 0.86 | fold change - vehicle control (protein TB427.07.7070 HY[…], CONSERVED): 0.72 | fold change - vehicle control (protein TB427.07.7460 HY[…], CONSERVED): 0.81 | fold change - vehicle control (protein TB427.08.1500 HY[…], CONSERVED): 0.87 | fold change - vehicle control (protein TB427.08.1840 HY[…], CONSERVED): 1.24 | fold change - vehicle control (protein TB427.08.1960 HY[…], CONSERVED): 0.78 | fold change - vehicle control (protein TB427.08.2080 HY[…], CONSERVED): 0.67 | fold change - vehicle control (protein TB427.08.3750 NUCLEOLAR PROTEIN, PUTATIVE): 0.89 | fold change - vehicle control (protein TB427.08.6390 LYSOPHOSPHOLIPASE, PUTATIVE): 0.97 | fold change - vehicle control (protein TB427.10.10610 PROTEIN TYROSINE PHOSPHATASE, PUTATIVE): 0.62 | fold change - vehicle control (protein TB427.10.1100 60S RIBOSOMAL PROTEIN L9, PUTATIVE): 1.06 | fold change - vehicle control (protein TB427.10.12740): 0.9 | fold change - vehicle control (protein TB427.10.14660 HY[…], CONSERVED): 0.83 | fold change - vehicle control (protein TB427.10.15720 […]-ATP-ASE SUBUNIT 9): 0.9 | fold change - vehicle control (protein TB427.10.2440 METACASPASE MCA4): 0.84 | fold change - vehicle control (protein TB427.10.2900 IMPORTIN BETA-1 SUBUNIT, PUTATIVE): 0.68 | fold change - vehicle control (protein TB427.10.3470 HY[…], CONSERVED): 0.78 | fold change - vehicle control (protein TB427.10.4110 60S RIBOSOMAL PROTEIN L30): 0.82 | fold change - vehicle control (protein TB427.10.4610 […]-MANNOSE SYNTHASE, PUTATIVE): 0.82 | fold change - vehicle control (protein TB427.10.5250 HY[…], CONSERVED): 0.86 | fold change - vehicle control (protein TB427.10.7410 SUCCINYL-COA LIGASE GDP-FORMING] BETA-CHAIN, PUTATIVE): 0.9 | fold change - vehicle control (protein TB927.10.12960 RAS-RELATED PROTEIN RAB-5): 0.82 | fold change - vehicle control (protein TB927.10.14800 PROTEIN KINASE, PUTATIVE): 1.18 | fold change - vehicle control (protein TB927.10.2980 […]-ATPASE SUBUNIT 11): 0.83 | fold change - vehicle control (protein TB927.10.3660 ASPARTATE AMINOTRANSFERASE): 1.14 | fold change - vehicle control (protein TB927.10.4570 […] 2): 0.72 | fold change - vehicle control (protein TB927.10.5140 PROTEIN KINASE, PUTATIVE): 0.83 | fold change - vehicle control (protein TB927.10.560 40S RIBOSOMAL PROTEINS S11, PUTATIVE): 0.94 | fold change - vehicle control (protein TB927.10.6510 CHAPERONIN HSP60, MIT[…]): 0.87 | fold change - vehicle control (protein TB927.3.1840 3-OXO-5-ALPHA-STEROID 4-DEHYDROGENASE, PUTATIVE): 1 | fold change - vehicle control (protein TB927.3.3780 TRYPAREDOXIN): 0.82 | fold change - vehicle control (protein TB927.3.740 HY[…], CONSERVED): 0.83 | fold change - vehicle control (protein TB927.4.2740 HY[…], CONSERVED): 0.74 | fold change - vehicle control (protein TB927.4.3590 T[…] 1-BETA, PUTATIVE): 0.85 | fold change - vehicle control (protein TB927.6.4320 HY[…], CONSERVED): 0.84 | fold change - vehicle control (protein TB927.7.2550 […] SUBUNIT 5): 0.7 | fold change - vehicle control (protein TB927.7.2980 HY[…], CONSERVED): 0.84 | fold change - vehicle control (protein TB927.7.7430 ATP SYNTHASE ALPHA CHAIN, MIT[…]): 0.73 | fold change - vehicle control (protein TB927.8.1990 PEROXIDOXIN): 0.74 | fold change - vehicle control (protein TB927.8.4720 AMINO ACID TRANSPORTER, PUTATIVE): 1.08 | fold change - vehicle control (protein TB927.8.890 SMALL GTP-BINDING PROTEIN RAB1, PUTATIVE): 0.93
